# Patent US10004222B2, “Small molecule ice recrystallization inhibitors and methods of use thereof” (THE UNIVERSITY OF OTTAWA, priority 2012, dated 2018)
# “And” between values parts separate entries of the source, which are not always exact repeats. Equal entries are not always repeated. “Also recorded” adds a separate entry of the source.
# What was measured:
# Tf1-α cells = assay: cryopreservation of Tf1-α cells, viability/apoptosis by flow cytometry (7-AAD, Annexin V); assay type: cell-based; conditions: for Apoptosis (%) / Cell Viability (%): 55 mM aryl-aldonamide, post-thaw; for cell viability: stored at −196° C. for 48 hours
# Protocol: Tf1-α cells were cultured to a final concentration of 2-3×10^6 cells/mL. Three million cells were transferred into cryovials and media were removed by aspiration after centrifugation at 1000 rpm for five minutes. 100 μL of RPMI media (10% FBS) supplemented with the cryopreservative of interest was added to the cryovial and vortexed. The cryovials were cooled at a rate of −1° C./min for 24 hours to −80° C. before being transferred to a liquid nitrogen dewar for storage until analysis.
# Cryovials were thawed under fast thaw conditions (submerged in 37° C. water bath). The cells were then diluted to a concentration of 3×10^6 cells/mL with 1× Annexin V Binding Buffer and a cell count was obtained by hemacytometer (to obtain cell recovery). A 400 μL aliquot was transferred to a flow cytommetry tube. 10 μL of each Annexin V FITC (for apoptosis) and 7-AAD (for viability) dyes were added, the tube was vortexed and allowed to incubate in the dark for 15 minutes. The solution was diluted to 1 mL with 1× Annexin V Binding Buffer, vortexed and analyzed by flow cytommetry. […] With 2% DMSO, cell viability reached about 45%, and with 10% DMSO, cell viability reached around 78%.
# [1] = system: CD34+ cells (hematopoietic stem cells); assay: colony forming unit (CFU) assay after cryopreservation of umbilical cord blood; assay type: cell-based, human; conditions: for combined results of the CFU assays vs control: UCB units 26, 27, 28 combined, FIG. 41; for BFU-E / CFU-G / CFU-GEMM / CFU-GM / CFU-M / Total Number of Colonies: post-thaw, 14 days in Methocult
# Protocol: (§1) Aliquots of LC (50,000 CD34^+ cells) are added to 2.0 mL cryovials. For each experiment, four cryovials are prepared (two for post-thaw viability analysis using flow cytometry and two for functionality analysis using the colony forming unit assay). Cryovials are kept on ice until placement in −80° C. freezer. Cryovials are centrifuged at 400 g and 10° C. for 5 minutes to pellet cells. After centrifugation, the time taken until placement in −80° C. freezer should not exceed 10 minutes. Supernatant is removed by aspiration or by decanting, but preferably by aspiration. Plasma (volume depends on desired cryosolution concentration) is added and cells are suspended by pipetting. Pre-made cryosolutions (see Cryosolutions) are added (volume depends on desired cryosolution concentration) and mixed by pipetting. Cryovials are placed in a Mr. Frosty® rate controlled freezing container which is then placed in a −80° C. freezer for 24 hours. By placing the cryovials in the freezing container, their contents undergo a cooling rate of about −1° C. per minute. After 24 hours, the cryovials are transferred to a liquid nitrogen dewar for storage until thawed for analysis.
# (§2) Cryosolutions are prepared in distilled autoclaved water supplemented with 0.9% saline and 5% dextran for cryopreservation experiments and diluted with different volumes of plasma in cryovials depending on desired concentration of ice recrystallization inhibitor. N-(4-chlorophenyl)-D-gluconamide (4a) and N-(2-fluorophenyl)-D-gluconamide (2a) are prepared at 25 mM and N-(4-methoxyphenyl)-D-gluconamide (3a) and N-(2,6-difluorobenzyl)-D-gluconamide (1b) are prepared at 55 mM. 100, 50, 33 or 20 μL of 25 mM N-(4-chlorophenyl)-D-gluconamide (4a) or N-(2-fluorophenyl)-D-gluconamide (2a) are added to cryovials containing 50,000 CD34^+ cells suspended in 0, 50, 67, or 80 μL of plasma, respectively, for a final IRI concentration of 25, 12.5, 8 or 5 mM, respectively. 100, 50, 33 or 20 μL of 55 mM N-(4-methoxyphenyl)-D-gluconamide (3a) or N-(2,6-difluorobenzyl)-D-gluconamide (1b) are added to cryovials containing 50,000 CD34^+ cells suspended in 0, 50, 67, or 80 μL of plasma, respectively, for a final IRI concentration of […], 18 or 11 mM, respectively.
# Cryovials are thawed in a 37° C. water bath and diluted with 900 μL of IMDM (10% FBS, 1% penicillin/streptomycin). Cryovials are placed on ice until washed. Samples are mixed by pipetting and 80 μL is transferred to a 15 mL Falcon tube. 5 mL of Iscove's Modified Dulbecco's Medium (IMDM) supplemented with 10% fetal bovine serum (FBS) is added and this mixture is centrifuged at 1100 rpm for six minutes to yield a cell pellet and a supernatant. The supernatant is removed by aspiration and the cell pellet is resuspended in 1 mL IMDM (2% FBS) to form a suspension. The suspension is mixed by pipetting. 150 μL of this cell suspension is added to 3 mL Methocult™ media and plating is performed in accordance with manufacturer's instruction. The suspension with Methocult™ media is mixed adequately by vortexing for 20 seconds. The contents are allowed to settle and bubbles are allowed to subside before plating (approximately 5-10 minutes). Using a 3 mL syringe and 16 gauge blunt needles, 2.5 mL of the cell suspension in Methocult™ is taken from the bottom. 1 mL of this 2.5 mL is added to two 5 mL cell culture dishes. The dishes are swirled to ensure cells in Methocult™ medium coat the entire bottom of the dish. A third 5 mL dish is prepared to contain distilled autoclaved water without a lid. These three 5 mL dishes are placed in a 100 mL plate; two 5 mL dishes contain 1 mL of cell suspension in Methocult™ medium with the lid on and one containing distilled autoclaved water with the lid off. The lid is placed on the 100 mL plate and stored in a 37° C. incubator (5% CO2) for two weeks.
# [2] = splat cooling ice recrystallization inhibition (IRI) assay
# Protocol: In this assay, the area of ice crystals are measured after a 30 minute annealing time at −6.4° C. and compared to a positive control for ice recrystallization resulting in a quantitative measurement of the mean ice grain size. For a positive control, a phosphate buffered saline (PBS) solution was utilized. All samples were normalized to the PBS positive control. The ice recrystallization inhibition activity of the carbohydrate-based non-ionic surfactants n-octyl-β-D-glucopyranoside (compound 3) and n-octyl-β-D-galactopyranoside (compound 4) is shown in FIG. 1.
# In this assay, the area of ice crystals are measured after a 30 minute annealing time at −6.4° C. and compared to a positive control for ice recrystallization resulting in a quantitative measurement of the mean ice grain size. For a positive control, a PBS solution was utilized. All samples were normalized to the PBS positive control.
# N-aryl-D-gluconamides (3a), (2a), (4a), and (1b) are a class of low molecular weight carbohydrate-based compounds. The ice recrystallization inhibition activity of (3a), (2a), (4a), and (1b) was assessed using a “splat cooling” assay. In this assay, the area of ice crystals are measured after a 30 minutes annealing time at −6.4° C. and compared to a positive control for ice recrystallization resulting in a quantitative measurement of the mean ice grain size. For a positive control, PBS was utilized. All samples were normalized to the PBS positive control.
# [3] = system: CD34+ cells (hematopoietic stem cells); assay: post-thaw viability of CD34+ cells of cryopreserved umbilical cord blood, flow cytometry; assay type: cell-based, human
# Protocol: Whole umbilical cord blood (UCB) should be stored at room temperature (15-25° C.) and processed within 48 hrs of collection. UCB is removed from collection bag and spilt in equal parts into 50 mL Falcon tubes. No more than 25 mL of UCB should be added per Falcon tube. UCB is diluted with 6% hetastarch (Hespan) to obtain a final concentration of 1% hetastarch and incubated for 10 minutes at room temperature. The tubes are then centrifuged at 50 g at 10° C. for 15-20 minutes, depending on volume. The centrifuge should not brake to stop. For total volumes of 30 mL, 15-17 minute centrifugation is utilized and for total volumes of 35 mL, 17-20 minute centrifugation is utilized. The supernatant and buffy coat (plasma and leukocytes) are removed carefully (not collecting RBCs) from the tubes and collected into new 50 mL Falcon tubes. These tubes are centrifuged at 400 g and 10° C. for 10 mins to pellet cells. The centrifuge brake can now be utilized. Plasma is removed and kept in new 50 mL Falcon tubes on ice. The cell pellets resuspended and combined in plasma to a total volume of 20 mL to generate leukocyte concentrate (LC). The LC is kept on ice for the duration of its use. Total mononuclear (CD45^+) and CD34^+ (hematopoetic stem cells) cell concentrations and viability are determined by flow cytometry (see Flow Cytometry procedure below). Aliquots of LC (50,000 CD34^+ cells) are utilized for cryopreservation experiments (see Cryopreservation Experiments procedure below).
# as §1, §2
# Total mononuclear cell (CD45+) and progenitor cell (CD34+) viability is assessed by flow cytometry using International Society of Hematotherapy and Graft Engineering (ISHAGE) guidelines (J. Hematother. Stem Cell Res. 1996, 5, 213-226). […]
# [4] = 10% DMSO (⅕ dilution with plasma), UCB Unit 27
# [5] = 10% DMSO (⅕ dilution with plasma), UCB Unit 28
# [6] = 22 mM in PBS, 30 min annealing at −6.4° C.
smiles,measurement,setting,value
"O=C(Nc1ccccc1)[C@H](O)[C@@H](O)[C@H](O)[C@H](O)CO [(1a), phenyl-aldonamide]",Apoptosis (%),Tf1-α cells; 0% DMSO,0%
same,Cell Viability (%),Tf1-α cells; 0% DMSO,0.07%
same,Apoptosis (%),Tf1-α cells; 2% DMSO,0.9%
same,Cell Viability (%),Tf1-α cells; 2% DMSO,34.71%
same,Apoptosis (%),Tf1-α cells; 10% DMSO,4.22%
same,Cell Viability (%),Tf1-α cells; 10% DMSO,68.82%
"O=C(NCc1cc(F)cc(F)c1)[C@H](O)[C@@H](O)[C@H](O)[C@H](O)CO [(2b), N-(3,5-difluorobenzyl)-D-gluconamide]",combined results of the CFU assays vs control,[1],did not perform particularly well
"O=C(Nc1ccccc1Cl)[C@H](O)[C@@H](O)[C@H](O)[C@H](O)CO [(5a), N-(2-chlorophenyl)-D-gluconamide]",BFU-E,"[1]; 5 mM IRI, 10% DMSO",19.2
same,CFU-G,"[1]; 5 mM IRI, 10% DMSO",5.0
same,CFU-GEMM,"[1]; 5 mM IRI, 10% DMSO",2.3
same,CFU-GM,"[1]; 5 mM IRI, 10% DMSO",5.2
same,CFU-M,"[1]; 5 mM IRI, 10% DMSO",1.0
same,Total Number of Colonies,"[1]; 5 mM IRI, 10% DMSO",32.7
same,BFU-E,"[1]; 8 mM IRI, 10% DMSO",18.0
same,CFU-G,"[1]; 8 mM IRI, 10% DMSO",5.0
same,CFU-GEMM,"[1]; 8 mM IRI, 10% DMSO",2.0
same,CFU-GM,"[1]; 8 mM IRI, 10% DMSO",4.0
same,CFU-M,"[1]; 8 mM IRI, 10% DMSO",2.0
same,Total Number of Colonies,"[1]; 8 mM IRI, 10% DMSO",31.0
same,BFU-E,"[1]; 12.5 mM IRI, 10% DMSO",27.0
same,CFU-G,"[1]; 12.5 mM IRI, 10% DMSO",8.0
same,CFU-GEMM,"[1]; 12.5 mM IRI, 10% DMSO",4.5
same,CFU-GM,"[1]; 12.5 mM IRI, 10% DMSO",6.5
same,CFU-M,"[1]; 12.5 mM IRI, 10% DMSO",1.5
same,Total Number of Colonies,"[1]; 12.5 mM IRI, 10% DMSO",47.5
same,fold increase in functionality relative to the control,[1]; 12.5 mM vs DMSO only,1.5 fold
same,BFU-E,"[1]; 25 mM IRI, 10% DMSO",20.5
same,CFU-G,"[1]; 25 mM IRI, 10% DMSO",7.0
same,CFU-GEMM,"[1]; 25 mM IRI, 10% DMSO",1.0
same,CFU-GM,"[1]; 25 mM IRI, 10% DMSO",11.0
same,CFU-M,"[1]; 25 mM IRI, 10% DMSO",2.5
same,Total Number of Colonies,"[1]; 25 mM IRI, 10% DMSO",42.0
same,combined results of the CFU assays vs control,[1],did not perform particularly well
"O=C(Nc1ccc(F)cc1)[C@H](O)[C@@H](O)[C@H](O)[C@H](O)CO [(6a), N-(4-Fluorophenyl)-D-gluconamide]",combined results of the CFU assays vs control,[1],did not perform particularly well
"COc1ccccc1NC(=O)[C@H](O)[C@@H](O)[C@H](O)[C@H](O)CO [(7a), N-(2-methoxyphenyl)-D-gluconamide]",combined results of the CFU assays vs control,[1],did not perform particularly well
"OC[C@@H](O)[C@H](O)[C@H](O)[C@@H](O)CO [D-dulcitol, reference compound]",ice recrystallization inhibition activity,[2]; concentration not given,decreased activity relative to the pyranose forms
"OC[C@@H](O)[C@@H](O)[C@H](O)[C@@H](O)CO [D-sorbitol, reference compound]",ice recrystallization inhibition activity,[2]; concentration not given,decreased activity relative to the pyranose forms
"C[S+](C)[O-] [DMSO, Dimethyl sulfoxide, reference compound]",Post-Thaw Viab.,[3]; 10% DMSO (no plasma),83%
same,Post-Thaw Viab.,[3]; [4],88%
same,Post-Thaw Viab.,[3]; [5],87%
same,cell viability,Tf1-α cells; 2% DMSO alone,about 45%
same,cell viability,Tf1-α cells; 10% DMSO alone,around 78%
same,Tot. No. Colonies,[1]; 10% DMSO (no plasma),47 and 34
same,Tot. No. Colonies,[1]; [4],56 and 35
same,Tot. No. Colonies,[1]; [5],36
same,BFU-E,"[1]; 10% DMSO only, IRI None",15.6
same,CFU-G,"[1]; 10% DMSO only, IRI None",5.1
same,CFU-GEMM,"[1]; 10% DMSO only, IRI None",2.8
same,CFU-GM,"[1]; 10% DMSO only, IRI None",6.8
same,CFU-M,"[1]; 10% DMSO only, IRI None",0.7
same,Total Number of Colonies,"[1]; 10% DMSO only, IRI None",31
same,"Tot. No. Colonies, AVG",[1]; average of control solutions,28
"CCCCCCCCO[C@@H]1OC(CO)[C@@H](O)[C@H](O)C1O (stereo partly drawn) [compound 3, n-octyl-β-D-glucopyranoside]",ice recrystallization inhibition activity,[2]; [6],identical to that of D-glucose
same,ice recrystallization inhibition activity,[2]; 44 mM in PBS,still identical to that of the 22 mM D-glucose
"CCCCCCCCO[C@@H]1OC(CO)[C@H](O)[C@H](O)C1O (stereo partly drawn) [compound 4, n-octyl-β-D-galactopyranoside]",ice recrystallization inhibition activity,[2]; 11 mM in PBS,significantly better than 22 mM D-galactose
same,ice recrystallization inhibition activity,[2]; [6],significantly better than 22 mM D-galactose; also recorded: potent
same,ice recrystallization inhibition activity,[2]; 44 mM in PBS,significantly better than 22 mM D-galactose
